Reference: BigSolDB 2.1

CC1=CC(=O)c2ccccc2C1=O
Conditions	solubility (mole fraction)
in benzene, 299.44 K	0.109
in benzene, 304.83 K	0.13
in benzene, 309.71 K	0.152
in benzene, 313.92 K	0.174
in benzene, 317.75 K	0.197
in benzene, 321.86 K	0.224
in benzene, 326.75 K	0.262
in benzene, 330.75 K	0.297
in benzene, 334.65 K	0.334
in benzene, 338.96 K	0.379
in ethylbenzene, 302.85 K	0.0976
in ethylbenzene, 309.44 K	0.122
in ethylbenzene, 314.77 K	0.146
in ethylbenzene, 319.53 K	0.173
in ethylbenzene, 323.75 K	0.199
in ethylbenzene, 327.93 K	0.228
in ethylbenzene, 331.75 K	0.26
in ethylbenzene, 335.44 K	0.297
in ethylbenzene, 339.42 K	0.342
in ethylbenzene, 343.86 K	0.396
in m-xylene, 301.65 K	0.127
in m-xylene, 307.74 K	0.151
in m-xylene, 312.76 K	0.176
in m-xylene, 317.36 K	0.202
in m-xylene, 321.64 K	0.23
in m-xylene, 325.94 K	0.258
in m-xylene, 329.73 K	0.288
in m-xylene, 333.64 K	0.323
in m-xylene, 337.61 K	0.364
in m-xylene, 341.55 K	0.411
in o-xylene, 302.95 K	0.14
in o-xylene, 309.24 K	0.169
in o-xylene, 314.25 K	0.194
in o-xylene, 318.34 K	0.219
in o-xylene, 322.45 K	0.245
in o-xylene, 326.77 K	0.274
in o-xylene, 330.54 K	0.305
in o-xylene, 334.23 K	0.34
in o-xylene, 338.32 K	0.383
in o-xylene, 342.43 K	0.432
in p-xylene, 302.5 K	0.129
in p-xylene, 309.53 K	0.158
in p-xylene, 314.64 K	0.184
in p-xylene, 318.96 K	0.21
in p-xylene, 323.35 K	0.239
in p-xylene, 327.68 K	0.269
in p-xylene, 332.02 K	0.304
in p-xylene, 335.89 K	0.344
in p-xylene, 340.1 K	0.39
in p-xylene, 344.24 K	0.44
in toluene, 303.44 K	0.119
in toluene, 308.84 K	0.143
in toluene, 313.63 K	0.166
in toluene, 317.65 K	0.189
in toluene, 321.85 K	0.216
in toluene, 325.99 K	0.246
in toluene, 330.04 K	0.277
in toluene, 333.86 K	0.311
in toluene, 337.8 K	0.351
in toluene, 342.59 K	0.404
